Results from patent EP4353084A1, “BIOPESTICIDE COMPOSITION WITH SYNERGISTIC EFFECT AND METHOD FOR COMBATING AND CONTROLLING PESTS” (Kimitec Biogroup S.L, priority 2022, dated 2024).
Values joined by “and” are separate entries in the source; they are usually repeats but may differ in a detail not shown here. Identical values can stand only once. Marks after values point to notes of the source that are not given here.

Legend:
Assay type in all cases: in vivo
[1] = test system: Tetranychus urticae; test: Contact mortality (Leaf Disc Method); details: for Mortality (%M): adults, 24 h, Abbott corrected
Method: This bioassay is to evaluate the physical effect of different doses on the mortality of Tetranychus urticae (red spider mite) adults in a short/medium-term (0-24 hours) by topical application.
Tests were conducted in plastic net petri dishes (5 cm diameter) (Figure 2). (a) The bottom of the petri dish was covered with a thin (0.4 mm) layer of agar 12% (w/v). After 2 minutes, to cool agar, (b) bean (Phaseolus vulgaris) leaf discs (2 cm^2) were placed on the fresh agar surface (upper side up) and allowed to dry for 30 minutes. This provides a support and disc hydration along the experiment (24 h). Fifteen (c) Tetranychus urticae adults were placed on the upper surface of a bean leaf disc with a fine entomological brush. The mites were allowed to acclimate for 30 minutes. A total of 10 petri dishes for each treatment (individual active ingredients, blend of active ingredients, positive and negative controls) were used in each experiment and temporarily replicated 3 times along the week.
Each treatment (different doses of individual active ingredients, blend of active ingredients, and controls) was sprayed (50 µl) two times on the settled spider mites, covering all the disc surface in each petri dishes using a micro-atomizer. Closed and labeled bottles were incubated in a compact-type growth chamber at 25 (±2) °C, 60% relative humidity (RH), and a photoperiod of 16 h:8 h light: dark. Numbers of live and dead mite adults were counted at 24 h post-treatment. Mite adults were considered dead if no movement was apparent after probing with the tip of a fine brush under stereoscopic magnifying glass. Mortality percentage was calculated in treatment and control groups. If the mortality in negative control is above 20%, the test was discarded. When control mortality was greater than 5% but less than 20%, the observed mortality (%M) was corrected using Abbott's formula (Abbott, 1925): % Corrected M = (X−Y)/(100−Y)x [formula]
Where: X= Mortality (%) in the treatment; Y= Mortality (%) in the control
Means of %M were compared using a one-way analysis of variance (ANOVA, p<0.05) and LSD-test as a post hoc test to verify significant differences between single treatments using Statgraphics Centurion XVII software. When nonnormality in the data was detected, an additional Kruskal-Wallis test was conducted, and Box-and-Whisker Plot (Median Notch) was presented. Each active ingredient and the blend were tested in a dose-response experiment (3-5 serial dilutions) to calculate their relative potency (EC50 and/or EC90) from a linear regression analysis (%M on Log-dose). In addition, death mite adults were carefully observed under stereoscopic magnifying glass to differentiate the mechanisms of action involved in contact mortality such as: Blocking tracheal insect spiracles (suffocation) and effect on insect cuticle and/or membranes (osmotic shock). Table 4. Contact mortality of test items against Tetranychus urticae

[2] = test system: Tetranychus urticae; test: In vitro settling inhibition (leaf disc painting method); details: 24 h
Method: The objective of this bioassay is to evaluate the effect of different doses of individual active ingredients and biopesticide composition on the settling behavior of Tetranychus urticae. It's based on the preference of mite adults for treated and non-treated bean (Phaseolus vulgaris) plants located in the same petri dishes (in vitro assays) or entomological cages (in planta assays): Tests were conducted in plastic net petri dishes (5cm diameter) (Figure 3). The bottom of the petri dish was covered with a thin (0.4 mm) layer of agar 12% (w/v) (a). After 2 minutes to cool agar, bean (Phaseolus vulgaris) leaf discs (2 cm^2) were placed on the fresh agar surface (upper side up) and allowed to dry for 30 minutes. It provides a support and disc hydration along the experiment (24 h). Half of the discs were treated (T) with 20 µl of the individually active ingredients and the blend and the other half with water containing 2% TWEEN® 80 that was used as control (C). Fifteen Tetranychus urticae adults were placed on the middle of treated and untreated leaf discs and allowed to feed (24 h) in a compact-type growth chamber at 25 (±2) °C, 60% relative humidity, and a photoperiod of 16 h:8 h light: dark. A total of 10 petri dishes for each treatment were used in each experiment and temporarily replicated 3 times along the week. Table 5. In vitro antifeedant effects against Tetranychus urticae Settling inhibition index (%SI) was calculated according to the following formula: %SI = [1−((T)/(C))] × 100 [formula] T= Settling of treated plants; C= Settling of control plants.

[3] = test system: Tetranychus urticae; test: Knock-down bioassays; details: 1% w/v; mortality assessed at 1, 2, 4, 6, 8, 16 and 24 hours after spraying; Figures 7 and 8
Method: Furthermore, the composition of the present invention was tested to evaluate its knock-down effect in the contact mortality assays of individual active ingredients and blend. Mortality, as in bioassay of contact mortality, was assessed at 1, 2, 4, 6, 8, 16 and 24 hours after spraying the blend of Eucalyptus oil and geraniol. In the case of individual active ingredients (Eucalyptus oil and geraniol), we used the dose that give major activity in contact (topical) assays 1% w/v Table 4. Blend was prepared at 0.06:0.06 %w/v (Eucalyptus oil: geraniol) for the bioassays with the biopesticide composition.
The same behavior was stated in the case of biopesticide composition (Figure 9). Abrupt curves showing high mortalities within oner hour are indicative of neurotoxic effects. However, smoothed curves could be used as indicative of non-toxic mode of action.

[4] = test system: Tetranychus urticae; test: In planta settling inhibition (Whole Plant Direct Method); details: 24 hours
Method: The objective of this bioassay is to evaluate the effect of different doses of individual active ingredients and biopesticide composition on the settling behavior of Tetranychus urticae. It's based on the preference of mite adults for treated and non-treated bean (Phaseolus vulgaris) plants located in the same petri dishes (in vitro assays) or entomological cages (in planta assays): The experiments were conducted in bugdorm®-type net cages (60x60x60 cm, 140 microns mesh) (Figure 4). By putting inside this, 14 cm diameter pots with two similar bean plants in two-leaf stage in each pot (Figure 5). One of the plants was sprayed with the composition of the present invention and the other with the control and allowed to dry for 30 minutes. Adult mites (up to 100) were released at the base of stems between the two plants (treated and untreated), so that they had to choose between two alternatives or remain walking and/or resting on the cage walk. A total of 5 cages for each treatment (four plant each) (Figure 6) and control were used in each experiment and replicated 3 times in different days. Closed and labeled cages were incubated in a "walk-in" type growth chamber at 25 (±2) °C, 60% relative humidity (RH), and a photoperiod of 16 h:8 h light: dark. After 24 hours the number of adults settled in treated and non-treated plants and the number of laid eggs were recorded on both side of blade in each leaf. Number of mites and eggs were counted under a stereomicroscope. Settling inhibition index (%SI) was calculated according to the following formula: %SI = [1−((T)/(C))] × 100 [formula] T= Settling of treated plants; C= Settling of control plants. Oviposition inhibition index (%10) was calculated according to the following formula: %IO = [1−((T)/(C))] × 100 [formula] T= laid eggs on treated plants; C= laid eggs on control plants. Means of %SI and %10 were analyzed for significance by the non-parametric Wilcoxon signed-rank test (p<0.05). An asterisk (*) means statistically significancy. Table 6. In planta antifeedant effects against Tetranychus urticae

Structure (SMILES): Cc1ccc(C(C)C)cc1O [Carvacrol]
- Mortality (%M) ([1]; Dose 0.01 % (w/v)): 38.9 ± 5.1%
- Mortality (%M) ([1]; Dose 0.05 % (w/v)): 47.1 ± 7.2%
- Mortality (%M) ([1]; Dose 0.10 % (w/v)): 66.8 ± 5.3%
- Mortality (%M) ([1]; Dose 1.0 % (w/v)): 100.0 ± 0.0%
- concentration given 80% of contact mortality ([1]; EC80): 0.55%
- EC80 (%, w/v) ([1]; Table 12, contact mortality, limits in brackets, text calls it EC80): EC50 (%, w/v) = 0.55 (0.42, 0.8)

Structure (SMILES): CC(C)=CCC/C(C)=C/CO [geraniol]
- Mortality (%M) ([1]; Dose 0.10 % (w/v)): 18,1% and 18.1 ± 2.4% and 18.1 ± 2.4 ^a %
- Mortality (%M) ([1]; Dose 0.50 % (w/v)): 28.2% and 28.2 ± 3.2% and 28.2 ± 3.2 ^b %
- Mortality (%M) ([1]; Dose 1.0 % (w/v)): 43.9 ± 2.5% and 43.9 ± 2.5 ^c %
- EC50 (%, w/v) ([1]; contact mortality, linear regression %M on Log-dose, limits in brackets): EC50 (%, w/v) = 2.44 (1.24, 4.75)
- concentration given 50% of contact mortality ([1]; in vivo): 2.44%
- Settling inhibition (%SI) ([2]; Dose 0.02 % (w/v)): 31.1 ± 4.4 %
- Settling inhibition (%SI) ([2]; Dose 0.05 % (w/v)): 47.5 ± 4.6 %
- Settling inhibition (%SI) ([2]; Dose 0.10 % (w/v)): 70.6%
- Settling inhibition (%SI) ([2]; Dose 0.10 % (w/v), listed as Geraniol): 70.6 ± 3.0 %
- Settling inhibition (%SI) ([2]; Dose 0.50 % (w/v)): 75.3 ± 3.4 %
- Settling inhibition (%SI) ([2]; Dose 1.0 % (w/v)): 82.9 ± 2.5 %
- Knock-down effect (knockdown curve) [3]: slow and gradual increase in the mortality along the time
- Oviposition inhibition (%IO) ([4]; Dose 0.10 % (w/v)): 44.3 ± 3.7* %
- Settling inhibition (%SI) ([4]; Dose 0.10 % (w/v)): 57.7 ± 5.3%
- Oviposition inhibition (%IO) ([4]; Dose 0.50 % (w/v)): 72.1 ± 3.1* %
- Settling inhibition (%SI) ([4]; Dose 0.50 % (w/v)): 73.2 ± 2.6%
- Oviposition inhibition (%IO) ([4]; Dose 1.0 % (w/v)): 81.1 ± 2.1* %
- Settling inhibition (%SI) ([4]; Dose 1.0 % (w/v)): 76.1 ± 2.7%
